Measured values reported in PubChem BioAssay (NCI).
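Method: 48-hour compound exposure of cells in 96-well plates, five concentrations, linear interpolation of endpoints. At the GI50, growth is halved. TGI: total growth inhibition.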

What was measured:
Assay in all cases: NCI anticancer screen, dose series, 48 h
HCT-116 colon = system: HCT-116 colon
ACHN renal = system: ACHN renal
SK-OV-3 ovarian = system: SK-OV-3 ovarian
SF-268 CNS = system: SF-268 CNS
PC-3 prostate = system: PC-3 prostate
SR leukemia = system: SR leukemia
IGROV1 ovarian = system: IGROV1 ovarian
786-0 renal = system: 786-0 renal
HOP-92 NSCLC = system: HOP-92 NSCLC
NCI-H226 lung = system: NCI-H226 lung
NCI-H23 lung = system: NCI-H23 lung
MCF7 breast = system: MCF7 breast
SK-MEL-28 melanoma = system: SK-MEL-28 melanoma
RPMI-8226 leukemia = system: RPMI-8226 leukemia
A549 NSCLC = system: A549 NSCLC
K-562 leukemia = system: K-562 leukemia
UACC-257 melanoma = system: UACC-257 melanoma
A498 renal = system: A498 renal
OVCAR-4 ovarian = system: OVCAR-4 ovarian
CCRF-CEM leukemia = system: CCRF-CEM leukemia
T-47D breast = system: T-47D breast
SK-MEL-2 melanoma = system: SK-MEL-2 melanoma
OVCAR-8 ovarian = system: OVCAR-8 ovarian
NCI-H522 lung = system: NCI-H522 lung
HOP-62 NSCLC = system: HOP-62 NSCLC
SN12C renal = system: SN12C renal
M14 melanoma = system: M14 melanoma
BT-549 breast = system: BT-549 breast
SF-539 CNS = system: SF-539 CNS
HS 578T breast = system: HS 578T breast
HCT-15 colon = system: HCT-15 colon
UO-31 renal = system: UO-31 renal
HCC-2998 colon = system: HCC-2998 colon
DU-145 prostate = system: DU-145 prostate
SW-620 colon = system: SW-620 colon
TK-10 renal = system: TK-10 renal
MDA-MB-435 = system: MDA-MB-435
EKVX NSCLC = system: EKVX NSCLC
COLO 205 colon = system: COLO 205 colon
CAKI-1 renal = system: CAKI-1 renal
OVCAR-3 ovarian = system: OVCAR-3 ovarian
NCI/ADR-RES ovarian = system: NCI/ADR-RES ovarian
NCI-H460 lung = system: NCI-H460 lung
SNB-19 CNS = system: SNB-19 CNS
U251 CNS = system: U251 CNS
HL-60(TB) leukemia = system: HL-60(TB) leukemia
MOLT-4 leukemia = system: MOLT-4 leukemia
OVCAR-5 ovarian = system: OVCAR-5 ovarian
KM12 colon = system: KM12 colon
HT29 colon = system: HT29 colon
UACC-62 melanoma = system: UACC-62 melanoma
MALME-3M melanoma = system: MALME-3M melanoma
RXF 393 renal = system: RXF 393 renal
MDA-MB-231 breast = system: MDA-MB-231 breast
SF-295 CNS = system: SF-295 CNS
SNB-75 CNS = system: SNB-75 CNS

CN1CC[C@@H](c2c(O)cc(O)c3c(=O)cc(-c4ccccc4Cl)oc23)[C@@H]1CO gave a GI50 (HCT-116 colon) of 200 nM, a TGI (HCT-116 colon) greater than 10000 nM and a GI50 (ACHN renal) of 294 nM. The TGI (ACHN renal) was greater than 10000 nM, the GI50 (SK-OV-3 ovarian) was 1400 nM and the TGI (SK-OV-3 ovarian) was 9910 nM. The GI50 (SF-268 CNS) was 305 nM, the TGI (SF-268 CNS) was 1380 nM and the GI50 (PC-3 prostate) was 314 nM. It also gave a TGI (PC-3 prostate) of 3640 nM, a GI50 (SR leukemia) of 107 nM and a TGI (SR leukemia) of 573 nM. The GI50 (IGROV1 ovarian) was 282 nM, the TGI (IGROV1 ovarian) was greater than 10000 nM and the GI50 (786-0 renal) was 339 nM. It also gave a TGI (786-0 renal) greater than 10000 nM, a GI50 (HOP-92 NSCLC) of 190 nM and a TGI (HOP-92 NSCLC) of 701 nM. It also gave a GI50 (NCI-H226 lung) of 239 nM, a TGI (NCI-H226 lung) of 878 nM and a GI50 (NCI-H23 lung) of 288 nM. It also gave a TGI (NCI-H23 lung) of 3030 nM, a GI50 (MCF7 breast) of 241 nM and a TGI (MCF7 breast) greater than 10000 nM. The GI50 (SK-MEL-28 melanoma) was 270 nM, the TGI (SK-MEL-28 melanoma) was 1240 nM and the GI50 (RPMI-8226 leukemia) was 362 nM. It also gave a TGI (RPMI-8226 leukemia) of 2730 nM, a GI50 (A549 NSCLC) of 368 nM and a TGI (A549 NSCLC) greater than 10000 nM. The GI50 (K-562 leukemia) was 297 nM, the TGI (K-562 leukemia) was greater than 2580 nM and the GI50 (UACC-257 melanoma) was 296 nM. For the same molecule, the TGI (UACC-257 melanoma) was 1360 nM, the GI50 (A498 renal) was 215 nM and the TGI (A498 renal) was 553 nM. For the same molecule, the GI50 (OVCAR-4 ovarian) was 709 nM, the TGI (OVCAR-4 ovarian) was greater than 9290 nM and the GI50 (CCRF-CEM leukemia) was 259 nM. It also gave a TGI (CCRF-CEM leukemia) greater than 3130 nM, a GI50 (T-47D breast) of 245 nM and a TGI (T-47D breast) of 1100 nM. It also gave a GI50 (SK-MEL-2 melanoma) of 228 nM, a TGI (SK-MEL-2 melanoma) of 594 nM and a GI50 (OVCAR-8 ovarian) of 321 nM. The TGI (OVCAR-8 ovarian) was greater than 10000 nM, the GI50 (NCI-H522 lung) was 357 nM and the TGI (NCI-H522 lung) was 2760 nM. The GI50 (HOP-62 NSCLC) was 304 nM, the TGI (HOP-62 NSCLC) was 1200 nM and the GI50 (SN12C renal) was 299 nM. For the same molecule, the TGI (SN12C renal) was greater than 10000 nM, the GI50 (M14 melanoma) was 331 nM and the TGI (M14 melanoma) was 1260 nM. For the same molecule, the GI50 (BT-549 breast) was 380 nM, the TGI (BT-549 breast) was 2520 nM and the GI50 (SF-539 CNS) was 275 nM. The TGI (SF-539 CNS) was 863 nM, the GI50 (HS 578T breast) was 233 nM and the TGI (HS 578T breast) was 1000 nM. The GI50 (HCT-15 colon) was 351 nM, the TGI (HCT-15 colon) was greater than 10000 nM and the GI50 (UO-31 renal) was 268 nM. For the same molecule, the TGI (UO-31 renal) was greater than 2990 nM, the GI50 (HCC-2998 colon) was 360 nM and the TGI (HCC-2998 colon) was 3670 nM. The GI50 (DU-145 prostate) was 365 nM, the TGI (DU-145 prostate) was greater than 10000 nM and the GI50 (SW-620 colon) was 276 nM. For the same molecule, the TGI (SW-620 colon) was greater than 10000 nM, the GI50 (TK-10 renal) was 293 nM and the TGI (TK-10 renal) was greater than 10000 nM. For the same molecule, the GI50 (MDA-MB-435) was 271 nM, the TGI (MDA-MB-435) was 1100 nM and the GI50 (EKVX NSCLC) was 372 nM. For the same molecule, the TGI (EKVX NSCLC) was greater than 8020 nM, the GI50 (COLO 205 colon) was 262 nM and the TGI (COLO 205 colon) was 785 nM. For the same molecule, the GI50 (CAKI-1 renal) was 204 nM, the TGI (CAKI-1 renal) was greater than 2560 nM and the GI50 (OVCAR-3 ovarian) was 278 nM. It also gave a TGI (OVCAR-3 ovarian) of 2170 nM, a GI50 (NCI/ADR-RES ovarian) of 1570 nM and a TGI (NCI/ADR-RES ovarian) greater than 10000 nM. For the same molecule, the GI50 (NCI-H460 lung) was 318 nM, the TGI (NCI-H460 lung) was greater than 10000 nM and the GI50 (SNB-19 CNS) was 344 nM. It also gave a TGI (SNB-19 CNS) greater than 10000 nM, a GI50 (U251 CNS) of 258 nM and a TGI (U251 CNS) greater than 10000 nM. The GI50 (HL-60(TB) leukemia) was 313 nM, the TGI (HL-60(TB) leukemia) was 1990 nM and the GI50 (MOLT-4 leukemia) was 295 nM. It also gave a TGI (MOLT-4 leukemia) greater than 3790 nM, a GI50 (OVCAR-5 ovarian) of 287 nM and a TGI (OVCAR-5 ovarian) greater than 10000 nM. It also gave a GI50 (KM12 colon) of 254 nM, a TGI (KM12 colon) greater than 9000 nM and a GI50 (HT29 colon) of 442 nM. The TGI (HT29 colon) was 6660 nM, the GI50 (UACC-62 melanoma) was 184 nM and the TGI (UACC-62 melanoma) was 578 nM. It also gave a GI50 (MALME-3M melanoma) of 361 nM, a TGI (MALME-3M melanoma) of 1580 nM and a GI50 (RXF 393 renal) of 192 nM. It also gave a TGI (RXF 393 renal) of 430 nM, a GI50 (MDA-MB-231 breast) of 292 nM and a TGI (MDA-MB-231 breast) greater than 10000 nM. The GI50 (SF-295 CNS) was 335 nM, the TGI (SF-295 CNS) was greater than 10000 nM and the GI50 (SNB-75 CNS) was 224 nM. The TGI (SNB-75 CNS) was 622 nM.
